Laboratory results as given in patent publication US6737383B1, “Herbicidal oxadiazolidines” (priority 1999, dated 2004).

Experiments:
soybean = assay: Test B pre/postemergence soybean; assay type: in vivo, Glycine max; settings: scale of 0 to 10 where 0 is no effect and 10 is complete control
Procedure, shortened: (§1)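 Herbicidal effect was estimated by eye on a ten-point control scale after plants spent twelve to sixteen days in a greenhouse following soil or foliar treatment. Foliar sprays targeted plants at one to four leaves; all doses were formulated in a non-phytotoxic solvent with surfactant.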

corn = assay: Test B pre/postemergence corn; assay type: in vivo, Zea mays
Procedure, shortened: as §1

crabgrass = assay: Test B pre/postemergence crabgrass; assay type: in vivo, Digitaria sanguinalis
Procedure, shortened: as §1

morningglory = assay: Test B pre/postemergence morningglory; assay type: in vivo, Ipomoea hederacea
Procedure, shortened: as §1

rape = assay: Test B pre/postemergence rape; assay type: in vivo, Brassica napus; settings: scale of 0 to 10 where 0 is no effect and 10 is complete control
Procedure, shortened: as §1

pigweed = assay: Test B pre/postemergence pigweed; assay type: in vivo, Amaranthus retroflexus; settings: scale of 0 to 10 where 0 is no effect and 10 is complete control
Procedure, shortened: as §1

duck salad = assay: Test B flood test duck salad; assay type: in vivo, Heteranthera limosa
Procedure, shortened: (§2)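 Each value is a visual injury score relative to controls, with 10 meaning complete control and 0 no effect. Evaluation took place twelve to sixteen days after the 2-leaf-stage plants were treated and kept in the greenhouse.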

purple nutsedge = assay: Test B pre/postemergence purple nutsedge; assay type: in vivo, Cyperus rotundus
Procedure, shortened: as §1

bamyardgrass = assay: Test B flood test barnyardgrass; assay type: in vivo, Echinochloa crus-galli
Procedure, shortened: as §2

sugar beet = assay: Test B pre/postemergence sugar beet; assay type: in vivo, Beta vulgaris; settings: scale of 0 to 10 where 0 is no effect and 10 is complete control
Procedure, shortened: as §1

cocklebur = assay: Test B pre/postemergence cocklebur; assay type: in vivo, Xanthium strumarium
Procedure, shortened: as §1

surinam grass = assay: Test B pre/postemergence surinam grass; assay type: in vivo, Brachiaria decumbens; settings: scale of 0 to 10 where 0 is no effect and 10 is complete control
Procedure, shortened: as §1

giant foxtail = assay: Test B pre/postemergence giant foxtail; assay type: in vivo, Setaria faberii
Procedure, shortened: as §1

wild oat = assay: Test B pre/postemergence wild oat; assay type: in vivo, Avena fatua; settings: scale of 0 to 10 where 0 is no effect and 10 is complete control
Procedure, shortened: as §1

rice = assay: Test B flood test rice; assay type: in vivo, Oryza sativa
Procedure, shortened: as §2

smallflower flatsedge = assay: Test B flood test smallflower flatsedge; assay type: in vivo, Cyperus difformis
Procedure, shortened: as §2

[1] = Preemergence, Rate 62 g/ha, scale of 0 to 10 where 0 is no effect and 10 is complete control
[2] = Preemergence, Rate 250 g/ha, scale of 0 to 10 where 0 is no effect and 10 is complete control
[3] = Preemergence, Rate 500 g/ha, scale of 0 to 10 where 0 is no effect and 10 is complete control
[4] = Rate 62 g/ha, Postemergence, scale of 0 to 10 where 0 is no effect and 10 is complete control
[5] = Rate 125 g/ha, Postemergence, scale of 0 to 10 where 0 is no effect and 10 is complete control
[6] = Rate 125 g/ha, Preemergence, scale of 0 to 10 where 0 is no effect and 10 is complete control
[7] = Rate 250 g/ha, Postemergence, scale of 0 to 10 where 0 is no effect and 10 is complete control
[8] = Rate 500 g/ha, Postemergence, scale 0 to 10, 0 no effect, 10 complete control
[9] = Rate 62 g/ha, headed Pre-emergence (flood test species), scale 0 to 10 (0 no effect, 10 complete control)
[10] = Rate 125 g/ha, Pre-emergence, flood test species, scale 0 to 10 where 0 is no effect and 10 is complete control
[11] = Rate 250 g/ha, Pre-emergence, flood-test species, scale 0 to 10, 0 is no effect, 10 is complete control
[12] = Rate 500 g/ha, Pre-emergence, flood test species, scale 0 to 10 (0 no effect, 10 complete control)

## Cc1ccccc1-n1c(=O)on(C(=O)N(c2ccc(Oc3ccccc3)cc2)C(C)C)c1=O [Compound 268]
soybean; Preemergence, Rate 62 g/ha
  Soybean plant response rating: 0
soybean; Preemergence, Rate 250 g/ha
  Soybean plant response rating: 0
soybean; Preemergence, Rate 500 g/ha
  Plant response rating, Soybean: 0
soybean; Rate 125 g/ha, Postemergence
  Soybean plant response rating: 0
soybean; Rate 125 g/ha, Preemergence
  Soybean plant response rating: 0
soybean; Rate 250 g/ha, Postemergence
  Plant response rating, Soybean: 0
corn; [1]
  Corn plant response rating: 0
corn; [2]
  Corn plant response rating: 0
corn; [3]
  Plant response rating, Corn: 0
corn; [4]
  Corn plant response rating: 0
corn; [5]
  Corn plant response rating: 0
corn; [6]
  Corn plant response rating: 0
corn; [7]
  Plant response rating, Corn: 0
corn; [8]
  Corn plant response rating: 3
crabgrass; [1]
  Crabgrass plant response rating: 0
crabgrass; [2]
  Crabgrass plant response rating: 0
crabgrass; [3]
  Plant response rating, Crabgrass: 0
crabgrass; [5]
  Crabgrass plant response rating: 0
crabgrass; [6]
  Crabgrass plant response rating: 0
crabgrass; [7]
  Plant response rating, Crabgrass: 0
crabgrass; [8]
  Crabgrass plant response rating: 0
morningglory; [1]
  Morningglory plant response rating: 0
morningglory; [2]
  Morningglory plant response rating: 0
morningglory; [3]
  Plant response rating, Morningglory: 0
morningglory; [5]
  Morningglory plant response rating: 2
morningglory; [6]
  Morningglory plant response rating: 0
morningglory; [7]
  Plant response rating, Morningglory: 2
morningglory; [8]
  Morningglory plant response rating: 7
rape; Preemergence, Rate 62 g/ha
  Rape plant response rating: 0
rape; Preemergence, Rate 250 g/ha
  Rape plant response rating: 0
rape; Preemergence, Rate 500 g/ha
  Plant response rating, Rape: 0
rape; Rate 125 g/ha, Postemergence
  Rape plant response rating: 0
rape; Rate 125 g/ha, Preemergence
  Rape plant response rating: 0
rape; Rate 250 g/ha, Postemergence
  Plant response rating, Rape: 0
pigweed; Preemergence, Rate 62 g/ha
  Redroot pigweed plant response rating: 0
pigweed; Preemergence, Rate 250 g/ha
  Redroot pigweed plant response rating: 0
pigweed; Preemergence, Rate 500 g/ha
  Plant response rating, Redroot pigweed: 0
pigweed; Rate 125 g/ha, Postemergence
  Redroot pigweed plant response rating: 0
pigweed; Rate 125 g/ha, Preemergence
  Redroot pigweed plant response rating: 0
pigweed; Rate 250 g/ha, Postemergence
  Plant response rating, Redroot pigweed: 0
Duck salad; [9]
  Ducksalad plant response rating: 0
Duck salad; [10]
  Ducksalad plant response rating: 0
Duck salad; [11]
  Ducksalad plant response rating: 0
Duck salad; [12]
  Ducksalad plant response rating: 0
Purple nutsedge; [1]
  Nutsedge plant response rating: 0
Purple nutsedge; [2]
  Nutsedge plant response rating: 0
Purple nutsedge; [5]
  Nutsedge plant response rating: 0
Purple nutsedge; [6]
  Nutsedge plant response rating: 0
Purple nutsedge; [7]
  Plant response rating, Nutsedge: 0
Purple nutsedge; [8]
  Nutsedge plant response rating: 0
bamyardgrass; [9]
  Barnyardgrass plant response rating: 0
bamyardgrass; [10]
  Barnyardgrass plant response rating: 0
bamyardgrass; [11]
  Barnyardgrass plant response rating: 0
bamyardgrass; [12]
  Barnyardgrass plant response rating: 0
Sugar beet; Preemergence, Rate 62 g/ha
  Sugarbeets plant response rating: 0
Sugar beet; Preemergence, Rate 250 g/ha
  Sugarbeets plant response rating: 0
Sugar beet; Preemergence, Rate 500 g/ha
  Plant response rating, Sugarbeets: 0
Sugar beet; Rate 125 g/ha, Postemergence
  Sugarbeets plant response rating: 0
Sugar beet; Rate 125 g/ha, Preemergence
  Sugarbeets plant response rating: 0
Sugar beet; Rate 250 g/ha, Postemergence
  Plant response rating, Sugarbeets: 0
cocklebur; [1]
  Cocklebur plant response rating: 0
cocklebur; [2]
  Cocklebur plant response rating: 0
cocklebur; [3]
  Plant response rating, Cocklebur: 0
cocklebur; [4]
  Cocklebur plant response rating: 0
cocklebur; [5]
  Cocklebur plant response rating: 0
cocklebur; [6]
  Cocklebur plant response rating: 0
cocklebur; [7]
  Plant response rating, Cocklebur: 0
cocklebur; [8]
  Cocklebur plant response rating: 0
Surinam grass; Preemergence, Rate 62 g/ha
  B. signalgrass plant response rating: 0
Surinam grass; Preemergence, Rate 250 g/ha
  B. signalgrass plant response rating: 0
Surinam grass; Preemergence, Rate 500 g/ha
  Plant response rating, B. signalgrass: 0
Surinam grass; Rate 62 g/ha, Postemergence
  B. signalgrass plant response rating: 0
Surinam grass; Rate 125 g/ha, Postemergence
  B. signalgrass plant response rating: 0
Surinam grass; Rate 125 g/ha, Preemergence
  B. signalgrass plant response rating: 0
Surinam grass; Rate 250 g/ha, Postemergence
  Plant response rating, B. signalgrass: 0
Giant foxtail; [1]
  Giant foxtail plant response rating: 0
Giant foxtail; [2]
  Giant foxtail plant response rating: 0
Giant foxtail; [3]
  Plant response rating, Giant foxtail: 0
Giant foxtail; [5]
  Giant foxtail plant response rating: 0
Giant foxtail; [6]
  Giant foxtail plant response rating: 0
Giant foxtail; [7]
  Plant response rating, Giant foxtail: 0
Giant foxtail; [8]
  Giant foxtail plant response rating: 0
Wild oat; Preemergence, Rate 62 g/ha
  Wild oats plant response rating: 0
Wild oat; Preemergence, Rate 250 g/ha
  Wild oats plant response rating: 0
Wild oat; Preemergence, Rate 500 g/ha
  Plant response rating, Wild oats: 0
Wild oat; Rate 125 g/ha, Postemergence
  Wild oats plant response rating: 0
Wild oat; Rate 250 g/ha, Postemergence
  Plant response rating, Wild oats: 0
rice; [9]
  Rice plant response rating: 0
rice; [10]
  Rice plant response rating: 0
rice; [11]
  Rice plant response rating: 0
rice; [12]
  Rice plant response rating: 0
Smallflower flatsedge; [9]
  S. Flatsedge plant response rating: 0
Smallflower flatsedge; [10]
  S. Flatsedge plant response rating: 0
Smallflower flatsedge; [11]
  S. Flatsedge plant response rating: 0
Smallflower flatsedge; [12]
  S. Flatsedge plant response rating: 0
